As a reminder, the AUC is the area under the concentration-time curve, a measure of exposure. A low value points to less exposure. As a reminder, the Tmax is the time at which the peak concentration occurs.

The source of these data is patent publication US9920069B2, “Compounds for treatment of fluoroquinolone-resistant bacteria” (The Board of Trustees of the University of Illinois, priority 2014, dated 2018).

Data set [1] concerns MRSA clinical isolate SAU.3024. In words: MIC, microdilution broth. The data set is classed as cell-based, S. aureus. The settings on record: Staphylococcus aureus. As to the method: (§1) Susceptibility testing was performed in triplicate using the microdilution broth method as outlined by the Clinical and Laboratory Standards Institute CLSI^52. MH broth was used.
On the technique in general: In broth dilution the organism is exposed to a series of concentrations in liquid medium.

A further data set deals with FQR MRSA (NRS3). The data set can be described thus: Mouse sepsis model, survival. The following applies: 50 mg kg^−1 oral gavage once-a-day 10 days; vs CIP and vehicle, P<0.005.
Data set [2] can be described thus: Pharmacokinetic assessment, serum by HPLC. In kind it is in vivo, C57BL/6 mice. The settings on record: mouse serum. As to the method:
FIG. 13. Pharmacokinetic analysis of DNM, DNM-2, and DNM-3. C57/BL6 mice were treated with 50 mg kg^−1 DNM, DNM-2, or DNM-3 via oral gavage. After the indicated time points (15, 30, 60, 120, 240, and 480 min), mice were sacrificed and the serum concentrations of DNM, DNM-2, and DNM-3 was determined by HPLC.
The animal studies (PK, in vivo toxicity and in vivo efficacy) were carried out in strict accordance with the recommendations in the Guide for the Care and Use of Laboratory Animals of the National Institutes of Health. […] In these studies, 10-12 week old female C57BL/6 mice purchased from Charles River were used. DNM, DNM-2, and DNM-3 were formulated as slurries at 8.3 mg mL^−1 in 25% Cremophor RH40/water (v/v). Before beginning the pharmacokinetic assessment, mice were first tested for their ability to tolerate the DNM, DNM-2, and DNM-3 at 50 mg kg^−1 (p.o.). […] At specified time points, mice were sacrificed and blood was collected, centrifuged, and the serum was frozen at −80° C. until analysis. The proteins in a 50 μL aliquot of serum were precipitated by the addition of 50 μL of acetonitrile and the sample was centrifuged to remove the proteins. Serum concentrations of DNM, DNM-2, and DNM-3 were determined by HPLC. PK parameters were determined using GraphPad Prism Version 5.00 for Windows.

In the next data set the target is T1, human topoisomerase II (Homo sapiens, UniProt P11388).
T1 construct: purchased Inspiralis
T1 sequence (P11388 whole entry): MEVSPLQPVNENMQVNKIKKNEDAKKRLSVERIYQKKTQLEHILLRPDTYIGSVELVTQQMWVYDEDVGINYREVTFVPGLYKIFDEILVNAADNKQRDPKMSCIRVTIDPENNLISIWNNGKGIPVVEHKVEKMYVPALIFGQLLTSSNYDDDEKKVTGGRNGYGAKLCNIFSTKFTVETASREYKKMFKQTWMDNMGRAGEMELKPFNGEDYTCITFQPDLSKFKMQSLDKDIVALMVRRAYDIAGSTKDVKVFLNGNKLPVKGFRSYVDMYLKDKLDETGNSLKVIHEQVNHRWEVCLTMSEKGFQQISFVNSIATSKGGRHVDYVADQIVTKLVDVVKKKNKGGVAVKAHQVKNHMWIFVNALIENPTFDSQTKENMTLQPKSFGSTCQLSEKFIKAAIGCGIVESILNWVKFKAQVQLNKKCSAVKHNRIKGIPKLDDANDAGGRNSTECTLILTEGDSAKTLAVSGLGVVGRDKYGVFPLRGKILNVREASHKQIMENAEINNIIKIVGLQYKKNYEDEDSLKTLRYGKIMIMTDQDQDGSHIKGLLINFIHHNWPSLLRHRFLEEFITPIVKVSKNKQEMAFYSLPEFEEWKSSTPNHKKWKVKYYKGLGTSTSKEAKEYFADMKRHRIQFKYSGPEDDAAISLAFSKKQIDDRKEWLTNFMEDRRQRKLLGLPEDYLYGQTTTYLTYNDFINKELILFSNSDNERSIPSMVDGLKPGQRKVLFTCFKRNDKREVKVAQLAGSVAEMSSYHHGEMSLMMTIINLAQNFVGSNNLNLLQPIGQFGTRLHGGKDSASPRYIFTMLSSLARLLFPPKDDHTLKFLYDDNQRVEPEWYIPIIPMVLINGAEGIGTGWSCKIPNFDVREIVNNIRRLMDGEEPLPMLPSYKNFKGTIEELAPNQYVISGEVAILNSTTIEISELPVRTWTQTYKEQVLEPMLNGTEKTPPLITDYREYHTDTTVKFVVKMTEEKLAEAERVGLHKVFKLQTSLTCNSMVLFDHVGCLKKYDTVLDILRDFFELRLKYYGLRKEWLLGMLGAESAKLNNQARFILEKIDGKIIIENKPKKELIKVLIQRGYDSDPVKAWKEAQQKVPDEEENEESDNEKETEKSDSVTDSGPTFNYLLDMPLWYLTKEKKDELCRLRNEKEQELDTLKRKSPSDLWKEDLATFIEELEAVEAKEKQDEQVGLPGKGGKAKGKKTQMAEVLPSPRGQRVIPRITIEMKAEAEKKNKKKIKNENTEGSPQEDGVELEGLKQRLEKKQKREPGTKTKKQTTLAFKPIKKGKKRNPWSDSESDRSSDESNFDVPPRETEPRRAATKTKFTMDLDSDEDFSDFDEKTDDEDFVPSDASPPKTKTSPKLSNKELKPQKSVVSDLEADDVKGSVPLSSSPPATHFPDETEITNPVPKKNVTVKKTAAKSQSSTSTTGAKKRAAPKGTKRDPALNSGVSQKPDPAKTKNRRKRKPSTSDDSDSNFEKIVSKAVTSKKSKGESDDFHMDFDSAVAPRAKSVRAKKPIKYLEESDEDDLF
In words: Human topoisomerase decatenation assay. In kind it is biochemical. The following applies: lowest inhibiting / highest without significant inhibition. How it is done: The decatenation assay was performed with the Human Topo II Decatenation Assay Kit (Inspiralis) according to the manufacturer's instructions with minor modifications. First, a master mix was made containing 2 μL 10× assay buffer (500 mM Tris.HCl, pH 7.5, 1250 mM NaCl, 100 mM MgCl2, 50 mM DTT, 1000 μg/mL albumin), 0.67 μL 30 mM ATP, 1.34 μL 0.1 ng/μL kDNA, and 14.3 μL of nuclease free water per sample is made. DMSO or 30× compound is added to a 0.5 mL Eppendorf tube (0.67 μL per tube). The master mix is then added to each tube (18.3 μL per tube). Finally, 1 U of human topoisomerase (1 μL of 1 U/μL stock) is added to each tube for a final volume of 20 μL. The tubes are then incubated at 37° C. for 30 min. Reactions are stopped by the addition of 20 μL of 24:1 chloroform:isoamyl alcohol and 20 μL of stop dye (40% sucrose, 1 mM EDTA, 100 mM TrisHCl pH 7.5, 0.5 μg/mL bromophenol blue). Samples were run on 1% agarose gels containing 0.5 μg/mL ethidium bromide for 1 h at 110V or until the dye front was approximately halfway down the gel. Gels were imaged on a Molecular Imager Gel Doc XR+ (Biorad).

The test system of the next data set is E. coli MG1655. The data set can be described thus: microbe, parasite or virus in culture. The data set is classed as cell-based. The following applies: Escherichia coli, gyrA none, parC none. How it is done: E. coli MG1655 and the ΔAcrB strain were obtained from Prof. Cari Vanderpool at UIUC.
as §1

For data set [3], the system named is MRSA clinical isolate SAU.846. The data set can be described thus: MIC, microdilution broth. In kind it is cell-based, S. aureus. The following applies: Staphylococcus aureus, MRSA, read-out: MIC. How it is done:
as §1

≈ marks a conversion by molar mass, not a printed value. Entries after “also recorded” stand apart in the source; their conditions may differ. Like-named read-outs stand apart in the source and are kept apart here.

As for `CCn1c(=O)cc(C)c2cc3c(C)cc(=O)n4c3c(c21)OC4` [DNM-2], the MIC in data set [1] worked out at 0.125 µg/mL (≈ 0.422 µM). Besides, in the data set on FQR MRSA (NRS3), the “survival of mice infected with FQR MRSA (NRS3)” value was “significant survival difference; also recorded: effective”. Also, in data set [2] (50 mg kg^−1 oral dose), the AUC came out at 44000 ng·h/mL and the “Cmax / peak serum concentration” value worked out at 12800 ng/mL. For the same compound, the Cmax in data set [2] (50 mg kg^−1 oral dose, read-out: Cmax / peak serum concentration) amounted to 42.6 µM. Further, in data set [2] (50 mg kg^−1 oral gavage), the AUC came to 44000 ng·h/mL, the Cmax was 12800 ng/mL, the Tmax was 1.2 h and the t1/2 amounted to 0.9 h. Also, the “concentration inhibiting human topoisomerase II” value on human topoisomerase II is more than 30 µM. For the same compound, the MIC with E. coli MG1655 is more than 24 µg/mL.
For `Cc1cc(=O)n(C)c2c3c4c(cc12)c(C)cc(=O)n4CO3` [DNM, deoxynybomycin], in data set [3], the MIC came to 0.031 µg/mL (≈ 0.11 µM).
